A word on the pIC50: it is −log10 of the IC50, conventionally taken in molar units.

In US5639783A, “Ketone derivatives” (Mitsubishi Chemical Corporation, priority 1991, dated 1997) one finds IC50 data, which are given here for 12 molecules.

pIC50: −log10 of the molar value. Read-outs that look alike come from different tables or passages of the source.

Common to all, as to assay type: biochemical
One test concerns the target T1, m-calpain (Rattus norvegicus, UniProt Q07009).
T1 construct: m-calpain was purified from rat brain; from tissue; host or cells: rat brain
T1 sequence (Q07009 20-700 limits assumed): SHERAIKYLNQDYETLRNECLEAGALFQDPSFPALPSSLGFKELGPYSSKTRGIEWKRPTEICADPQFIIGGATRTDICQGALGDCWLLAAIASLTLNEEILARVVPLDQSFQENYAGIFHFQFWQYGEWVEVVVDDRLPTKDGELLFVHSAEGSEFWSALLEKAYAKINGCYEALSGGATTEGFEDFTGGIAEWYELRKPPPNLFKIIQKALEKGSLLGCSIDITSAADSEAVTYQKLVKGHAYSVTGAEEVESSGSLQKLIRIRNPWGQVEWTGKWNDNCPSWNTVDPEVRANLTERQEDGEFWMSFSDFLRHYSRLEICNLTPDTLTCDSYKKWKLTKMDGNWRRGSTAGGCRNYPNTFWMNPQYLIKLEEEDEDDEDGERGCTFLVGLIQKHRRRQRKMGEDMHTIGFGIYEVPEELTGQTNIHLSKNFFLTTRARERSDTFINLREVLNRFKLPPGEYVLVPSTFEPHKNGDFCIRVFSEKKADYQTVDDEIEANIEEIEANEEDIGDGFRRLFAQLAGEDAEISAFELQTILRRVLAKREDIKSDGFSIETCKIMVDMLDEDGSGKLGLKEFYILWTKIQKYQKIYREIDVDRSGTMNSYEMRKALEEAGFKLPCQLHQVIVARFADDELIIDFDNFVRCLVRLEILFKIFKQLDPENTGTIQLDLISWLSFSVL
T1 sequence (Q64537 1-270 partner): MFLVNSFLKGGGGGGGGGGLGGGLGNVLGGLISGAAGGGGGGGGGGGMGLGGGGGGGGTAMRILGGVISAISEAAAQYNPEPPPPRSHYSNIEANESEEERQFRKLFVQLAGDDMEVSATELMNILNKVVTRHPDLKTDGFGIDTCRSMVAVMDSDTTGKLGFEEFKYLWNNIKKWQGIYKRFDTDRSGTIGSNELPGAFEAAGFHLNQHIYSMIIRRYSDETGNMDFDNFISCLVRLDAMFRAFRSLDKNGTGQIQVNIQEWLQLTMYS
As to the kind of experiment: Thiol protease inhibitory activity, m-calpain purified from rat brain. On the procedure: (§1) Inhibitory activity against papain (P-3125, Sigma) and cathepsin B (C-6286, Sigma) was assayed according to the method described in a literature [Biochemical Journal, 201, 189 (1982)]. Cathepsin L was purified from rat kidney according to the method in a literature [Journal of Biochemistry, 100, 35 (1986)], and the inhibitory activity against it was assayed in the same manner as described in the above literature for cathepsin B. Furthermore, m-calpain was purified from rat brain according to a known method [Journal of Biological Chemistry, 254, p. 3210 (1984)] and the inhibitory activity against it was assayed by a method described in a literature [Journal of Biological Chemistry, 259, 12489 (1984)]. It is evident from Tables 3 and 4 that the compounds of the present invention have a potent inhibitory activity against thiol proteases such as papain, cathepsin B, cathepsin L or m-calpain.

The target in a further test is T2, cathepsin B (Bos taurus, UniProt P07688).
T2 construct: purchased Sigma C-6286
In words: Thiol protease inhibitory activity, cathepsin B (C-6286, Sigma). The conditions noted are these: Table 3. The method, then: as §1

For another test, the target named is T3, papain (Carica papaya, UniProt P00784).
T3 sequence (P00784 134-345): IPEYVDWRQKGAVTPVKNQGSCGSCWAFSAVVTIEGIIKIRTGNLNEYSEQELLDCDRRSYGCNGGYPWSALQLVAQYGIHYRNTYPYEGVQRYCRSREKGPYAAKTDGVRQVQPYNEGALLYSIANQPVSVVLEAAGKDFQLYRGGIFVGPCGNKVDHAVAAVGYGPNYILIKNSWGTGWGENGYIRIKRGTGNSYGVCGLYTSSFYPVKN
In words: Thiol protease inhibitory activity, papain (P-3125, Sigma). On the procedure:
as §1

`CCCC[C@H](NC(=O)[C@H](CC(C)C)NC(=O)COc1ccccc1Cl)C(=O)CSCc1ccco1` [39 (No. 88), (s)-3-[(s)-2-(2-chlorophenoxyacetylamino)-4-methylvalerylamino]-1-furfurylthio-2-heptanone]: the pIC50 was 5.66 on m-calpain (Table 3); 6.54 against cathepsin B; 6.60 at papain (Table 3, read-out: IC50 papain).
The corresponding values for `CC(C)C[C@H](NC(=O)Cc1csc2ccccc12)C(=O)N[C@@H](Cc1ccccc1)C(=O)CSCc1ccco1` [162 (No. 345), (s)-3-[(s)-2-(3-benzothienylacetylamino)-4-methylvalerylamino]-1-furfurylthio-4-phenyl-2-butanone] are 5.43, 5.28 and 6.02.
Regarding `CCCC[C@H](NC(=O)[C@H](CC(C)C)NC(=O)COc1cccc2ccccc12)C(=O)CSCc1ccco1` [52 (No. 114), (s)-1-furfurylthio-3-[-(s)-4-methyl-2-(1-naphtoxyacetylamino)valerylamino]-2-heptanone], the pIC50 on m-calpain (Table 3) was 5.60; on cathepsin B it was 6.09; on papain (Table 3, read-out: IC50 papain), 6.47.
The corresponding values for `CCCC[C@H](NC(=O)[C@H](CC(C)C)NC(=O)OCC1CCCCC1)C(=O)CSCc1ccco1` [21 (No. 46), (s)-3-((s)-2-cyclohexylmethoxycarbonylamino-4-methylvalerylamino)-1-furfurylthio-2-heptanone] are 5.33, 6.85 and 6.89.
Regarding `CCCC[C@H](NC(=O)[C@H](CC(C)C)NC(=O)Cc1ccccc1)C(=O)CSCc1ccco1` [30 (No. 66), (s)-1-furfurylthio-3-((s)-4-methyl-2-phenylacetylaminovalerylamino)-2-heptanone], the negative logarithm of the IC50 (pIC50) on m-calpain (Table 3) is 5.29; on cathepsin B, 6.23; on papain it was 6.82.
In turn, `CCCC[C@H](NC(=O)[C@H](CC(C)C)NC(=O)C=Cc1ccc(OC)cc1)C(=O)CSCc1ccco1` [84 (No. 165), (s)-1-furfurylthio-3-[(s)-2-(4-methoxycinnamoylamino)-4-methylvalerylamino]-2-heptanone] had a pIC50 against m-calpain (Table 4) of 5.68.
The same measure, in the same setting: under `CCCC[C@H](NC(=O)[C@H](CC(C)C)NC(=O)C1CCCCC1)C(=O)CSCc1ccco1` [29 (No. 65), (s)-3-((s)-2-cyclohexylcarbonylamino-4-methylvalerylamino)-1-furfurylthio-2-heptanone] stands 5.44; under `CCCC[C@H](NC(=O)[C@H](CC(C)C)NC(=O)COc1cccc(OC)c1)C(=O)CSCc1ccco1` [78 (No. 103), (s)-1-furfurylthio-3-[(s)-2-(3-methoxyphenoxyacetylamino)-4-methylvalerylamino]-2-heptanone], 5.22; under `CCCC[C@H](NC(=O)[C@H](CC(C)C)NC(=O)c1ccc(F)cc1F)C(=O)CSCc1ccco1` [59 (No. 121), (s)-3-[(s)-2-(2,4-difluorobenzoylamino)-4-methylvalerylamino]-1-furfurylthio-2-heptanone], 5.38.
On m-calpain (Table 4), `CCCC[C@H](NC(=O)[C@H](CC(C)C)NC(=O)Cc1cccc2c1OCO2)C(=O)CSCc1ccco1` [32 (No. 73), (s)-1-furfurylthio-3-[(s)-4-methyl-2-(2,3-methylenedioxyphenylacetylamino)valerylamino]-2-heptanone] gave a negative-log IC50 (pIC50) of 5.21.
`CCCC[C@H](NC(=O)[C@H](CC(C)C)NC(=O)c1cc(F)cc(F)c1)C(=O)CSCc1ccco1` [63 (No. 125), (s)-3-[(s)-2-(3,5-difluorobenzoylamino)-4-methylvalerylamino]-1-furfurylthio-2-heptanone]: on m-calpain (Table 4), the pIC50 is 5.26.
At m-calpain (Table 4), `CC(C)C[C@H](NC(=O)OCc1ccccc1)C(=O)N[C@@H](Cc1ccccc1)C(=O)CSCc1ccco1` [139 (No. 297), (s)-3-((s)-2-benzyloxycarbonylamino-4-methylvalerylamino)-1-furfurylthio-4-phenyl-2-butanone] showed a negative logarithm of the IC50 (pIC50) of 5.35.
